Reference: article PMC9120017, “Inhibition mechanism of the chloride channel TMEM16A by the pore blocker 1PBC” (Nature Communications, 2022)
Where two headings read alike, the source gives them in different places.

Molecular target: T1, mouse TMEM16A mutant R535A (Mus musculus, UniProt Q8BHY3, R535A)
T1 construct: expressed in transfected cells; host or cells: HEK293T
T1 sequence (Q8BHY3 1-960 R535A): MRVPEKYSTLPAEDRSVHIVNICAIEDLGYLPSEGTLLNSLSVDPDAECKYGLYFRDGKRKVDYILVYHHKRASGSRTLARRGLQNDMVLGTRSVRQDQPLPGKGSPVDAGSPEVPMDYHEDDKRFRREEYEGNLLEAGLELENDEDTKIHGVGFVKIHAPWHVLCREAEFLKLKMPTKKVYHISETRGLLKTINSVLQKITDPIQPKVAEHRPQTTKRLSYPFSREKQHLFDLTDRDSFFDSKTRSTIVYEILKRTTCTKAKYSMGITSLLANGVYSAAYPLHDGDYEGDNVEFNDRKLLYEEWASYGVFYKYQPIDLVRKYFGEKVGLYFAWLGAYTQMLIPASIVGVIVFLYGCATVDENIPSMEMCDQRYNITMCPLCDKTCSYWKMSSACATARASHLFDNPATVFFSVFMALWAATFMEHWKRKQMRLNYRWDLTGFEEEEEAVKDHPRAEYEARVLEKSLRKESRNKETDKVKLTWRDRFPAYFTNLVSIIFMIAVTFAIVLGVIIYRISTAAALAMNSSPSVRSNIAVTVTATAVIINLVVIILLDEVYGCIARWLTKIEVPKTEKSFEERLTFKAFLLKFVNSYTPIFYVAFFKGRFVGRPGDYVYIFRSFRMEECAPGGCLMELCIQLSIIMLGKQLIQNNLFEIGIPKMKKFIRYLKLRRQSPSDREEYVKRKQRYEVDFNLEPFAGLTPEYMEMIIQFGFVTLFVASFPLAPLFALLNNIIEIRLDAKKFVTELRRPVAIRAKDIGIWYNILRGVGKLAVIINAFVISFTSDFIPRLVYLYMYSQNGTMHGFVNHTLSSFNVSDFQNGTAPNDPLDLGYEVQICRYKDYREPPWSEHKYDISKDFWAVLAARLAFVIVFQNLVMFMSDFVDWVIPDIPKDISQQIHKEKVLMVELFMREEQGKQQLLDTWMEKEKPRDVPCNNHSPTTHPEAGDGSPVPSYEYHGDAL
Experiment: Inside-out patch recording of 1PBC block, mutant R535A
Type: cell-based
Conditions: for remaining activity at 100 µM: 100 µM 1PBC
Procedure: HEK293T cells (ATCC CRL-1573) were maintained in Dulbecco’s modified Eagle’s medium (DMEM; Sigma-Aldrich) supplemented with 10 U ml^−1 penicillin, 0.1 mg ml^−1 streptomycin (Sigma-Aldrich), 2 mM L-glutamine (Sigma-Aldrich), and 10% FBS (Sigma-Aldrich) in a humidified atmosphere containing 5% CO2 at 37 °C. HEK293S GnTI^− cells (ATCC CRL-3022) were maintained in HyClone HyCell TransFx-H medium (GE Healthcare) supplemented with 10 U ml^−1 penicillin, 0.1 mg ml^−1 streptomycin, 4 mM L-glutamine, 0.15% poloxamer 188 (Sigma-Aldrich), and 1% FBS in an atmosphere containing 5% CO2 at 185 rpm at 37 °C. The ac splice variant of mouse TMEM16A (UniProt ID: Q8BHY3), mouse TMEM16B (UniProt ID: Q8CFW1), or mouse TMEM16F (UniProt ID: Q6P9J9) bearing a 3C cleavage site, a Venus YFP, a Myc tag, and a Streptavidin-binding peptide (SBP) downstream of the open reading frame in a modified pcDNA3.1 vector (Invitrogen) were used as described previously[21],[31]. Mutations were introduced using a modified QuikChange method[58] and were verified by sequencing.
HEK293T cells were transfected with 3–4 μg DNA per 6 cm Petri dish using the calcium phosphate co-precipitation method and were used within 24–96 h after transfection. Recordings were performed on inside-out patches excised from HEK293T cells expressing the construct of interest. Patch pipettes were pulled from borosilicate glass capillaries (O.D. 1.5 mm, I.D. 0.86 mm, Sutter Instrument) and were fire-polished with a microforge (Narishige) before use. Pipette resistance was typically 3–8 MΩ when filled with the recording solutions detailed below. Seal resistance was typically 4 GΩ or higher. Voltage-clamp recordings were made using Axopatch 200B, Digidata 1550, and Clampex 10.7 (Molecular Devices). Analog signals were filtered with the in-built 4-pole Bessel filter at 10 kHz and were digitized at 20 kHz. Solution exchange was achieved using a gravity-fed system through a theta glass pipette mounted on an ultra-fast piezo-driven stepper (Siskiyou). […] All recordings were performed at 20 °C.
A symmetrical ionic condition was used throughout. Stock solution with Ca^2+-EGTA contained 150 mM NaCl, 5.99 mM Ca(OH)2, 5 mM EGTA, and 10 mM HEPES at pH 7.40. Stock solution with EGTA contained 150 mM NaCl, 5 mM EGTA, and 10 mM HEPES at pH 7.40. Free Ca^2+ concentrations were adjusted by mixing the stock solutions at the required ratios calculated using the WEBMAXC program (http://web.stanford.edu/~cpatton/webmaxcS.htm). Patch pipettes were filled with the stock solution with Ca^2+-EGTA, which has a free Ca^2+ concentration of 1 mM. 1PBC (ChemBridge) stock was reconstituted in anhydrous DMSO (Sigma-Aldrich) at 100 mM and stored at −20 °C. Working solutions with 1PBC were prepared by serial dilution. Unless otherwise stated, experiments were performed at a saturating Ca^2+ concentration as shown in Supplementary Table 1 and the primary data were corrected for current rundown as described previously[21],[25].
Concentration-response relations, obtained from the ratio of the I-V plots before and after the application of the blocker, were fitted to the Hill equation,1 I/Imax=1/1+IC50/[blocker]^h where I/Imax is the normalized current responses, IC50 defines the concentration at which inhibition is at its half-maximum, and h is the Hill coefficient.

- IC50 (0 mV, 2 µM Ca2+): 11.9 µM
- remaining activity at 3 µM (3 µM 1PBC, +80 mV, saturating Ca2+ (2 µM), read-out: I/Imax): 67.6%
- remaining activity at 3 µM (3 µM 1PBC, -80 mV, saturating Ca2+ (2 µM), read-out: I/Imax): 91.3%
- remaining activity at 10 µM (10 µM 1PBC, +80 mV, saturating Ca2+ (2 µM), read-out: I/Imax): 36.9%
- remaining activity at 10 µM (10 µM 1PBC, -80 mV, saturating Ca2+ (2 µM), read-out: I/Imax): 70.8%
- remaining activity at 30 µM (30 µM 1PBC, +80 mV, saturating Ca2+ (2 µM), read-out: I/Imax): 16.6%
- remaining activity at 30 µM (30 µM 1PBC, -80 mV, saturating Ca2+ (2 µM), read-out: I/Imax): 46.3%
- remaining activity at 100 µM (+80 mV, saturating Ca2+ (2 µM), read-out: I/Imax): 5.26%
- remaining activity at 100 µM (-80 mV, saturating Ca2+ (2 µM), read-out: I/Imax): 21.3%
- remaining activity at 3 µM (1PBC 3, 0 mV, read-out: fraction of unblocked current): 80.7%
- remaining activity at 3 µM (1PBC 3, 20 mV, read-out: fraction of unblocked current): 76.3%
- remaining activity at 3 µM (1PBC 3, 40 mV, read-out: fraction of unblocked current): 72.5%
- remaining activity at 3 µM (1PBC 3, 60 mV, read-out: fraction of unblocked current): 69.3%
- remaining activity at 3 µM (1PBC 3, 80 mV, read-out: fraction of unblocked current): 67.6%
- remaining activity at 3 µM (1PBC 3, 100 mV, read-out: fraction of unblocked current): 65.8%
- remaining activity at 3 µM (1PBC 3, 120 mV, read-out: fraction of unblocked current): 66%
- remaining activity at 3 µM (1PBC 3, 140 mV, read-out: fraction of unblocked current): 66.6%
- remaining activity at 3 µM (1PBC 3, -20 mV, read-out: fraction of unblocked current): 85.2%
- remaining activity at 3 µM (1PBC 3, -40 mV, read-out: fraction of unblocked current): 87.7%
- remaining activity at 3 µM (1PBC 3, -60 mV, read-out: fraction of unblocked current): 89.5%
- remaining activity at 3 µM (1PBC 3, -80 mV, read-out: fraction of unblocked current): 91.3%
- remaining activity at 3 µM (1PBC 3, -100 mV, read-out: fraction of unblocked current): 91.1%
- remaining activity at 3 µM (1PBC 3, -120 mV, read-out: fraction of unblocked current): 92.2%
- remaining activity at 3 µM (1PBC 3, -140 mV, read-out: fraction of unblocked current): 91.6%
- remaining activity at 10 µM (1PBC 10, 0 mV, read-out: fraction of unblocked current): 53.9%
- remaining activity at 10 µM (1PBC 10, 20 mV, read-out: fraction of unblocked current): 48.3%
- remaining activity at 10 µM (1PBC 10, 40 mV, read-out: fraction of unblocked current): 43.7%
- remaining activity at 10 µM (1PBC 10, 60 mV, read-out: fraction of unblocked current): 39.8%
- remaining activity at 10 µM (1PBC 10, 80 mV, read-out: fraction of unblocked current): 36.9%
- remaining activity at 10 µM (1PBC 10, 100 mV, read-out: fraction of unblocked current): 34.6%
- remaining activity at 10 µM (1PBC 10, 120 mV, read-out: fraction of unblocked current): 34.7%
- remaining activity at 10 µM (1PBC 10, 140 mV, read-out: fraction of unblocked current): 35.9%
- remaining activity at 10 µM (1PBC 10, -20 mV, read-out: fraction of unblocked current): 59.6%
- remaining activity at 10 µM (1PBC 10, -40 mV, read-out: fraction of unblocked current): 63.3%
- remaining activity at 10 µM (1PBC 10, -60 mV, read-out: fraction of unblocked current): 67%
- remaining activity at 10 µM (1PBC 10, -80 mV, read-out: fraction of unblocked current): 70.8%
- remaining activity at 10 µM (1PBC 10, -100 mV, read-out: fraction of unblocked current): 73%
- remaining activity at 10 µM (1PBC 10, -120 mV, read-out: fraction of unblocked current): 74.7%
- remaining activity at 10 µM (1PBC 10, -140 mV, read-out: fraction of unblocked current): 75.4%
- remaining activity at 30 µM (1PBC 30, 0 mV, read-out: fraction of unblocked current): 28.6%
- remaining activity at 30 µM (1PBC 30, 20 mV, read-out: fraction of unblocked current): 24.4%
- remaining activity at 30 µM (1PBC 30, 40 mV, read-out: fraction of unblocked current): 20.9%
- remaining activity at 30 µM (1PBC 30, 60 mV, read-out: fraction of unblocked current): 18.1%
- remaining activity at 30 µM (1PBC 30, 80 mV, read-out: fraction of unblocked current): 16.6%
- remaining activity at 30 µM (1PBC 30, 100 mV, read-out: fraction of unblocked current): 15.4%
- remaining activity at 30 µM (1PBC 30, 120 mV, read-out: fraction of unblocked current): 15.7%
- remaining activity at 30 µM (1PBC 30, 140 mV, read-out: fraction of unblocked current): 16.3%
- remaining activity at 30 µM (1PBC 30, -20 mV, read-out: fraction of unblocked current): 32.7%
- remaining activity at 30 µM (1PBC 30, -40 mV, read-out: fraction of unblocked current): 36.9%
SMILES: N#Cc1c(C(F)(F)F)cc(O)n2c1nc1ccccc12 [1PBC]
